Reference: patent US4537894A, “Methods of using compositions having antithrombotic and anti-blood-platelet-aggregating activity” (priority 1978, dated 1985)
“Also recorded” adds a separate entry of the source. Structures can show the parent of a compound that is named as a salt.

Tests used:
[1] = tested on: Mongrel dogs; experiment: survival on the 7th day after adrenalin infusion; assay type: in vivo; conditions: for number of animals that survived on the 7th day after adrenalin infusion: oral, twice a day, 4 days, control 2/5; for survival time, in words: adrenalin infusion, dogs
Protocol: (§1) This investigation concerned myocardial necrosis induced in animals under severe stress conditions which may be reproduced by infusion of adrenalin.
(§2) Mongrel dogs of either sex, weighing about 10 kg, were distributed into groups of 5 animals each: except for one group of untreated dogs (controls, Group 1), the other groups were orally administered the test material, twice a day, for 4 days, repsectively:
(§3) Eighteen hours after the last treatment the dogs were anesthetized with phenobarbital (25 mg/kg, i.v.); a catheter was placed in the femoral artery, the blood pressure was recorded via a STAHAM P 23 GD sensor and the ECG was recorded (D1 and D2) with a RACIA polygraph. The adrenalin was infused by the cephalic route at a dosage of 4 μg/kg/mn at a rate of 2 ml/mn for 4 hours.
(§4) The animals were freed from the catheters and were allowed to wake up. The animals which survived 7 days later were sacrificed and autopsied; the hearts were cut out and examined macroscopically prior to taking samples for histological examination. Any macroscopic anomalies are rated according to the following code (Table II) which was established arbitrarily and which takes into account the extent of the damages (p.9).
The number of animals that survived on the 7th day after adrenalin infusion is reported below: […]

[2] = tested on: blood platelets; experiment: blood-platelet count before and after adrenalin infusion; assay type: in vivo, Mongrel dogs; conditions: for Blood-platelet count, change prior to and after adrenalin infusion: oral, twice a day, 4 days, controls 32.4% decrease; for number of blood-platelets, in words: adrenalin infusion, dogs
Protocol: as §1, §2, §3
Arterial blood samples were taken before and after the end of the infusion, to effect the blood-platelet counts.

[3] = acute toxicity, LD50, mice; conditions: mouse, in vivo
[4] = tested on: blood platelets (collagen-induced aggregation); experiment: collagen-induced blood-platelet aggregation after oral treatment; assay type: in vivo, Wistar rats; conditions: Rattus norvegicus, read-out: Percent Inhibition, Collagen
Protocol: Blood was taken from the jugular vein of Wistar rats. […] 0.4 ml plasma is placed in a siliconized tube provided with a magnet bar which is also siliconized. The tube is introduced into an aggregometer coupled with an apparatus which records the optical density variations. […] Blood-platelet-aggregation produces then an increase of light transmission followed by a decrease subsequent to the deaggregation phase. The maximum optical density variation thus determined characterizes the intensity of the aggregation. (b) Determination of collagen-induced blood-platelet-aggregation The A.D.P. solution is substituted with a collagen solution (bovine tendon extract).

[5] = tested on: myocardial necrosis; experiment: adrenalin-induced myocardial necrosis, macroscopic lesions; assay type: in vivo, Mongrel dogs; conditions: for Macroscopic Lesions, necrosis score: oral, twice a day, 4 days, control 18.0; for necrosis / macroscopic lesions, in words: adrenalin infusion, dogs, vs controls
Protocol: as §1, §3, §4

[6] = tested on: platelet aggregation (collagen); conditions: Packham et al 1967; cited from earlier work
[7] = tested on: platelet; conditions: in man; Goodman and Gilman 1975; cited from earlier work
[8] = acute toxicity, LD50, rats; conditions: rat, in vivo
[9] = tested on: platelet aggregation (antigen-antibody complexes); conditions: Packham et al 1967; cited from earlier work
[10] = tested on: blood platelets (A.D.P. induced aggregation); experiment: A.D.P. induced blood-platelet aggregation after oral treatment; assay type: in vivo, Wistar rats; conditions: Rattus norvegicus, read-out: Percent Inhibition, A.D.P.
Protocol: Blood was taken from the jugular vein of Wistar rats. […] (a) Determination of A.D.P. induced blood-platelet aggregation 0.4 ml plasma is placed in a siliconized tube provided with a magnet bar which is also siliconized. The tube is introduced into an aggregometer coupled with an apparatus which records the optical density variations. When light transmission has reached a stable value, 0.5 ml of a solution containing 10μ M A.D.P. (adenosine-di-phosphate) is added to the tube. Blood-platelet-aggregation produces then an increase of light transmission followed by a decrease subsequent to the deaggregation phase. The maximum optical density variation thus determined characterizes the intensity of the aggregation.

[11] = acute toxicity, LD50, rabbits; conditions: rabbit, in vivo, iv, Miller & Tainter method, read-out: LD50 /24 hrs/kg body weight
Excerpt: The tests carried out concerned:

[12] = Group 4: 20 mg/kg sulfinpyrazone
[13] = Group 5: 40 mg/kg sulfinpyrazone
[14] = Group 4: 10 mg/kg sulfinpyrazone, oral, 3 hours after treatment, vs control
[15] = Group 5: 20 mg/kg sulfinpyrazone, oral, 3 hours after treatment, vs control
[16] = Group 2: 50 mg/kg ticlopidine hydrochloride
[17] = Group 3: 100 mg/kg ticlopidine hydrochloride

## O=C1C(CC[S+]([O-])c2ccccc2)C(=O)N(c2ccccc2)N1c1ccccc1 (stereo not shown) [sulfinpyrazone, 1,2-diphenyl-(2'-phenylsulfinyl-ethyl)pyrazolidine-3,5-dione]
[1]; [12]
  number of animals that survived on the 7th day after adrenalin infusion: 2/5
[1]; [13]
  number of animals that survived on the 7th day after adrenalin infusion: 2/5
[1]
  survival time, in words: no effect
[2]; [12]
  Blood-platelet count, change prior to and after adrenalin infusion: -12%
[2]; [13]
  Blood-platelet count, change prior to and after adrenalin infusion: -7%
[2]
  number of blood-platelets, in words: no effect
[3]; iv
  LD50 at 24 h: 240 mg/kg
[3]; po
  LD50 at 24 h: 298 mg/kg
[4]; [14]
  inhibition at 10 mg/kg: 12.7%
[4]; [15]
  inhibition at 20 mg/kg: 20.5%
[5]; [12]
  Macroscopic Lesions, necrosis score: 18.2
[5]; [13]
  Macroscopic Lesions, necrosis score: 17.4
[5]
  necrosis / macroscopic lesions, in words: substantially identical with those of the controls; also recorded: no effect
[6]
  platelet aggregation in response to collagen: blocks platelet aggregation
[7]
  platelet survival: prolongs platelet survival
[8]; iv
  LD50 at 24 h: 154 mg/kg
[8]; po
  LD50 at 24 h: 375 mg/kg
[9]
  platelet aggregation in response to antigen-antibody complexes: blocks platelet aggregation
[10]; [14]
  inhibition at 10 mg/kg: 8.7%
[10]; [15]
  inhibition at 20 mg/kg: 14.1%
[11]
  LD50 at 24 h: 195 mg/kg

## Clc1ccccc1CN1CCc2sccc2C1 [ticlopidine hydrochloride, 5-(2-chloro-benzyl)-4,5,6,7-tetrahydro-thieno[3,2-c]pyridine]
[1]; [16]
  number of animals that survived on the 7th day after adrenalin infusion: 3/5
[1]; [17]
  number of animals that survived on the 7th day after adrenalin infusion: 4/5
[1]
  survival time, in words: improves the survival time
[2]; [16]
  Blood-platelet count, change prior to and after adrenalin infusion: +14%
[2]; [17]
  Blood-platelet count, change prior to and after adrenalin infusion: +13.2%
[2]
  number of blood-platelets, in words: increases the number of blood-platelets
[4]; po, 3 h
  inhibition at 25 mg/kg: 48.6%
  inhibition at 50 mg/kg: 58.3%
[5]; [16]
  Macroscopic Lesions, necrosis score: 6.8
[5]; [17]
  Macroscopic Lesions, necrosis score: 4.8
[5]
  necrosis / macroscopic lesions, in words: significant protection against myocardia necrosis
[10]; po, 3 h
  inhibition at 25 mg/kg: 28.5%
  inhibition at 50 mg/kg: 40.6%
